Laboratory results: ChEMBL document CHEMBL5053541, “Andrographolide derivative as antagonist of vitamin D receptor to induce lipidation of microtubule associate protein 1 light chain 3 (LC3)” (Bioorg Med Chem, 2021)
The source made the active and inactive calls. No cut-off for these calls is given here.

How the values were obtained:
[1] = test system: HeLa; assay: Cytotoxicity against human HeLa cells assessed as reduction in cell viability measured after 24 hrs by methylene blue staining based assay
[2] = target: T1, Vitamin D3 receptor (Homo sapiens) (UniProt P11473); assay: Antagonist activity against calcitriol-activated VDR signalling in human HeLa cells assessed as inhibition of VDR signalling incubated with calcitriol for 1 hr followed by compound addition and measured after 24 hrs by luciferase reporter gene assay; assay type: cell-based
T1 sequence (whole entry): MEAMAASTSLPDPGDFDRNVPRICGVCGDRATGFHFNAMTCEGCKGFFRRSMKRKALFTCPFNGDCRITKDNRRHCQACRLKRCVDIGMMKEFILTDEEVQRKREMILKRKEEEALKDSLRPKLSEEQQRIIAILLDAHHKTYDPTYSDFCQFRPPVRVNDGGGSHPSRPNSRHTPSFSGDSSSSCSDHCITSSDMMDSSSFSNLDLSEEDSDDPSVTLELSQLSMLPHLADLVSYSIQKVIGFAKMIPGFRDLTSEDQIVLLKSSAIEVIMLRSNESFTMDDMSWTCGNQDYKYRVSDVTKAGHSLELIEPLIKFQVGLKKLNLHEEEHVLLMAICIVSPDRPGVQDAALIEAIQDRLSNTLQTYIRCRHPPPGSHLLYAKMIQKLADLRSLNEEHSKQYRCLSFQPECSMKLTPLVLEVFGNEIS

[3] = target: Nuclear factor NF-kappa-B complex (Homo sapiens) (UniProt Q00653+P19838+Q04206); assay: Inhibition of TNF-alpha induced NF-kappaB signalling in human HeLa cells incubated with TNF-alpha for 1 hr followed by compound addition and measured after 24 hrs by luciferase reporter gene assay; assay type: cell-based
Nuclear factor NF-kappa-B complex (Homo sapiens), sequence (P19838 whole entry, looked up): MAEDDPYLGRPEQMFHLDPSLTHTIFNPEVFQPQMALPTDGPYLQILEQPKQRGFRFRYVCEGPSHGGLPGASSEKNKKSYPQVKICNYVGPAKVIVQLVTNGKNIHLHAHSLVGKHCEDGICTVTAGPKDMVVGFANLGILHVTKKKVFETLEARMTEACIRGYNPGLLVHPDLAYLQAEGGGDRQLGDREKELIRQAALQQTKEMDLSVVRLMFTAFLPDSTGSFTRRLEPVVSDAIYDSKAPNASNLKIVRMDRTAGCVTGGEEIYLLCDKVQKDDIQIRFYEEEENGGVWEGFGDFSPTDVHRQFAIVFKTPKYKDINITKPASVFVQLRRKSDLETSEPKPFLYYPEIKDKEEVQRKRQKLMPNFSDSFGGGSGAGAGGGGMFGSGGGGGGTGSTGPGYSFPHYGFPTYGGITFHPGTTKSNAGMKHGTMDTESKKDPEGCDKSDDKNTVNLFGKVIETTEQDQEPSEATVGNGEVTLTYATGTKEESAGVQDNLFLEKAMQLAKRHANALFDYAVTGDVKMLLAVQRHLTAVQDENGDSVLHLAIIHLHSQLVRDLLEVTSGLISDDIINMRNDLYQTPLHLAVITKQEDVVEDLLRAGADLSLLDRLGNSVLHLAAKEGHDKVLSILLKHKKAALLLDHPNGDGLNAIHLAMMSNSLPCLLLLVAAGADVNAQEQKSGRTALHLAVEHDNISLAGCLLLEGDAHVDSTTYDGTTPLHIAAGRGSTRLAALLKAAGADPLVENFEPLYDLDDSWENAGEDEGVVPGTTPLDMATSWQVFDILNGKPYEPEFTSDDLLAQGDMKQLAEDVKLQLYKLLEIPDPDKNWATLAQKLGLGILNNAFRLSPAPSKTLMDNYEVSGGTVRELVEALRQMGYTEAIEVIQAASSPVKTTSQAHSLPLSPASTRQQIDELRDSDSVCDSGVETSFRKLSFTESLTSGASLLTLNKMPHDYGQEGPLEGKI
Nuclear factor NF-kappa-B complex (Homo sapiens), sequence (Q00653 whole entry, looked up): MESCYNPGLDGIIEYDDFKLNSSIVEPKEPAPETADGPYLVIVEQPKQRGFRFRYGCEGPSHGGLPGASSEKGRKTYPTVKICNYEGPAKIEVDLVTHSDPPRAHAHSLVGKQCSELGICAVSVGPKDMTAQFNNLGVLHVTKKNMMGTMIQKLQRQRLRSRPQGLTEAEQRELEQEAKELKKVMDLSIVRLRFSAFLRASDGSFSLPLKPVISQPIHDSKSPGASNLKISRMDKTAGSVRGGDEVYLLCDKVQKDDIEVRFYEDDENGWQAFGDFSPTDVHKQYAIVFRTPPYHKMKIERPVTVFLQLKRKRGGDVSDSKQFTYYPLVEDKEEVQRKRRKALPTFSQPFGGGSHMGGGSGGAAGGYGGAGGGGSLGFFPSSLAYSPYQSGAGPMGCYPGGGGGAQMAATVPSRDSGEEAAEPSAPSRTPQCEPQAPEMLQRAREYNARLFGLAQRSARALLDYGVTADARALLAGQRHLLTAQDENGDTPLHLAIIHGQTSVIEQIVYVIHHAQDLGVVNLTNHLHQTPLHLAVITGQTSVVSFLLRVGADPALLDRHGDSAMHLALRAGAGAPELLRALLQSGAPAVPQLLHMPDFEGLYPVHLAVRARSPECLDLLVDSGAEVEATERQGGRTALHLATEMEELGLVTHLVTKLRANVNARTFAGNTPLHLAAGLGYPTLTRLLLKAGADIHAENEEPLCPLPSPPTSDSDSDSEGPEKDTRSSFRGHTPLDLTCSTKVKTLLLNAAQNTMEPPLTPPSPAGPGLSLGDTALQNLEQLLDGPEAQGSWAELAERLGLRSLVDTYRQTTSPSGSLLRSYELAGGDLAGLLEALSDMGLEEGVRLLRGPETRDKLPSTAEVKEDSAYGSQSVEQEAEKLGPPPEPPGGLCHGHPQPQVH
Nuclear factor NF-kappa-B complex (Homo sapiens), sequence (Q04206 whole entry, looked up): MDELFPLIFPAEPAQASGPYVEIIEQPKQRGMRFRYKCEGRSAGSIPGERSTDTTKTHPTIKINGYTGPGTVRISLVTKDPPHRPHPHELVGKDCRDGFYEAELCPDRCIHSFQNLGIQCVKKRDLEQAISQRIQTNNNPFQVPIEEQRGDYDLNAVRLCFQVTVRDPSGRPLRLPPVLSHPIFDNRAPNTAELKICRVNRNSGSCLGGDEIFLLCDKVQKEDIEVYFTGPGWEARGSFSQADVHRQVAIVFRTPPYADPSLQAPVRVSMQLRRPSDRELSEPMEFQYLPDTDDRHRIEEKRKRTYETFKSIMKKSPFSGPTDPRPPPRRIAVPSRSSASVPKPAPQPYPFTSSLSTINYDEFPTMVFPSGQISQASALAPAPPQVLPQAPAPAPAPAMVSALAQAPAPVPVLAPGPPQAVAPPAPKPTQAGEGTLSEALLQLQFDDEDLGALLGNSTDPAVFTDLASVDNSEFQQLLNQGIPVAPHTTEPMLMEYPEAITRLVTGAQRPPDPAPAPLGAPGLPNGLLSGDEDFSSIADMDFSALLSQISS

[4] = target: Signal transducer and activator of transcription 3 (Homo sapiens) (UniProt P40763); assay: Inhibition of IFN-gamma stimulated STAT3 signalling in human HeLa cells incubated for 1 hr withIFN-gamma followed by compound addition and measured after 24 hrs by luciferase reporter gene assay; assay type: cell-based
Signal transducer and activator of transcription 3 (Homo sapiens), sequence (P40763 whole entry): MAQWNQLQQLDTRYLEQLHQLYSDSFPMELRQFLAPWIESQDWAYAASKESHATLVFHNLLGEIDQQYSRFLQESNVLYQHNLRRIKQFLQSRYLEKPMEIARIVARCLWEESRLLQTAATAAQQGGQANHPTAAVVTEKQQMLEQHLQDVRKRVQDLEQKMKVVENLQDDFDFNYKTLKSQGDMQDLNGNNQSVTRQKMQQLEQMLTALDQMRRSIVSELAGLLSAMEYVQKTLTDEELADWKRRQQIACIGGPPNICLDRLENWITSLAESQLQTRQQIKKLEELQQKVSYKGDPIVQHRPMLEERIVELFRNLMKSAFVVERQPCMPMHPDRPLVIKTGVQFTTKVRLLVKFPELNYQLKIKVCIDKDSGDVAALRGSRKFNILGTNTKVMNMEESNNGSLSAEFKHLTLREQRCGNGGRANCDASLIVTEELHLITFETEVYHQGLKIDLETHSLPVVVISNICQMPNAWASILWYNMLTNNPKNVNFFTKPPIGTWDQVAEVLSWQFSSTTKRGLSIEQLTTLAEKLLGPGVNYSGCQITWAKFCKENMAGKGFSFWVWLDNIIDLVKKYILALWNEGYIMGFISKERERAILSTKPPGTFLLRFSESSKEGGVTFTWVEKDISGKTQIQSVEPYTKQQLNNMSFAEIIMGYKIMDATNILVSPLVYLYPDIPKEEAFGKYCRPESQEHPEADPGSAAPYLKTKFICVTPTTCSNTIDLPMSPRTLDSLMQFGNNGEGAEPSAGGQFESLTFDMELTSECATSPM

[5] = target: T1, Vitamin D3 receptor (Homo sapiens); assay: Antagonist activity at VDR in human HeLa cells assessed as decrease in mTOR phosphorylation at Ser2448 residue at 10 uM in presence or absence of calcitriol measured after 4 hrs by western blot analysis; assay type: cell-based
[6] = target: T1, Vitamin D3 receptor (Homo sapiens); assay: Antagonist activity at VDR in human HeLa cells assessed as increase in ratio of LC3-II to LC-I at 10 uM in presence or absence of calcitriol measured after 4 hrs by western blot analysis; assay type: cell-based; details: filed as antagonist
[7] = target: T1, Vitamin D3 receptor (Homo sapiens); assay: Antagonist activity at VDR in human HeLa cells assessed as reduction in CYP27B1 mRNA expression at 10 uM measured after 4 hrs by […]; assay type: cell-based; details: filed as antagonist
[8] = test system: SH-SY5Y; assay: Neuroprotective activity against A53T SNCA-induced cytotoxicity in human SH-SY5Y cells assessed as decrease in A53T SNCA induced LDH release at 100 nM by LDH assay; assay type: functional, cell-based
[9] = target: T1, Vitamin D3 receptor (Homo sapiens); assay: Antagonist activity at VDR in human HeLa cells assessed as decrease in p62 expression at 100 nM in presence or absence of calcitriol measured after 4 hrs by western blot analysis; assay type: cell-based; details: filed as antagonist
[10] = test system: SH-SY5Y; assay: Neuroprotective activity against SNCA-induced neurotoxicity in human SH-SY5Y cells transfected with adenovirus expressing […] SNCA assessed as reduction in […] SNCA expression at 100 nM measured after 6 hrs by western blot analysis; assay type: functional, cell-based
[11] = target: T1, Vitamin D3 receptor (Homo sapiens); assay: Antagonist activity at VDR in human HeLa cells assessed as decrease in mTOR phosphorylation at Ser2448 residue at 100 nM in presence or absence of calcitriol measured after 4 hrs by western blot analysis; assay type: cell-based
[12] = test system: SH-SY5Y; assay: Neuroprotective activity against SNCA-induced neurotoxicity in human SH-SY5Y cells transfected with adenovirus expressing […] SNCA assessed as inhibition of p62 expression at 100 nM measured after 6 hrs by western blot analysis; assay type: functional, cell-based
[13] = target: T1, Vitamin D3 receptor (Homo sapiens); assay: Antagonist activity at VDR in human HeLa cells assessed as increase in ratio of LC3-II to LC-I at 100 nM in presence or absence of calcitriol measured after 4 hrs by western blot analysis; assay type: cell-based
[14] = test system: N2a; assay: Induction of autophagy in MPP+-induced mouse N2a cells assessed as increase in LC3-II expression at 10 uM measured after 6 hrs by western blot analysis; assay type: functional, cell-based
[15] = test system: SH-SY5Y; assay: Neuroprotective activity against SNCA-induced neurotoxicity in human SH-SY5Y cells transfected with adenovirus expressing […] SNCA assessed as inhibition of mTOR activation at 100 nM measured after 6 hrs by western blot analysis; assay type: functional, cell-based
[16] = test system: N2a; assay: Effect on SNCA oligomerization in mouse N2a cells transfected with Syn-luc1 and Syn-luc2 plasmids assessed as reduction in SNCA self-oligomerization by measuring luciferase activity at 100 nM measured after 6 hrs by bioluminescent protein-fragment complementation assay; assay type: functional, cell-based
[17] = test system: N2a; assay: Induction of autophagy in MPP+-induced mouse N2a cells infected with pAde-LC3-EGFP- mCherry assessed as formation of mCherry foci by measuring increased in red fluorescence at 500 nM measured after 4 hrs by Hoechst staining based confocal microscope analysis; assay type: functional, cell-based
[18] = test system: N2a; assay: Induction of autophagy in MPP+-induced mouse N2a cells infected with pAde-LC3-EGFP- mCherry assessed as formation of mCherry foci by measuring increased in red fluorescence at 10 uM measured after 4 hrs by Hoechst staining based confocal microscope analysis; assay type: functional, cell-based
[19] = test system: N2a; assay: Inhibition of lipid synthesis related gene expression in MPP+-induced mouse N2a cells assessed as reduction in ACACA gene expression measured after 6 hrs by qRT-PCR analysis; assay type: functional
[20] = test system: N2a; assay: Upregulation of SREBP2 cleavage in MPP+-induced mouse N2a cells assessed as increase in active form of phospho-SREBP2 level measured up to 6 hrs by western blot analysis; assay type: functional
[21] = test system: N2a; assay: Upregulation of SREBP2 cleavage in MPP+-induced mouse N2a cells assessed as increase in active cleaved form of SREBP2 level measured up to 6 hrs by western blot analysis; assay type: functional
[22] = test system: N2a; assay: Induction of autophagy in MPP+-induced mouse N2a cells expressing myc-VDR plasmid assessed as LC3 lipidation at 10 uM measured after 6 hrs by western blot analysis; assay type: functional, cell-based
[23] = test system: N2a; assay: Inhibition of lipid synthesis related gene expression in MPP+-induced mouse N2a cells assessed as reduction in Scap gene expression measured after 6 hrs by qRT-PCR analysis; assay type: functional
[24] = test system: N2a; assay: Inhibition of lipid synthesis related gene expression in MPP+-induced mouse N2a cells assessed as reduction in Insig-1 gene expression measured after 6 hrs by qRT-PCR analysis; assay type: functional
[25] = test system: SH-SY5Y; assay: Neuroprotective activity against SNCA-induced neurotoxicity in human SH-SY5Y cells transfected with adenovirus expressing […] SNCA assessed as reduction in […] SNCA expression at 10 uM measured after 6 hrs by western blot analysis; assay type: functional, cell-based
[26] = test system: N2a; assay: Effect on SNCA oligomerization in mouse N2a cells transfected with Syn-luc1 and Syn-luc2 plasmids assessed as reduction in SNCA self-oligomerization by measuring luciferase activity at 10 to 20 uM measured after 6 hrs by bioluminescent protein-fragment complementation assay; assay type: functional, cell-based; details: dose 10-20 µM
[27] = test system: N2a; assay: Induction of autophagy in MPP+-induced mouse N2a cells transfected with Atg7 shRNA assessed as increase in LC3-II expression at 10 uM measured after 6 hrs by western blot analysis; assay type: functional, cell-based
[28] = test system: N2a; assay: Inhibition of lipid synthesis related gene expression in MPP+-induced mouse N2a cells assessed as reduction in Fasn gene expression measured after 6 hrs by qRT-PCR analysis; assay type: functional
[29] = test system: N2a; assay: Inhibition of lipid synthesis related gene expression in MPP+-induced mouse N2a cells assessed as reduction in Ldr gene expression measured after 6 hrs by qRT-PCR analysis; assay type: functional
[30] = test system: SH-SY5Y; assay: Neuroprotective activity against A53T SNCA-induced cytotoxicity in human SH-SY5Y cells assessed as decrease in A53T SNCA induced LDH release at 10 uM by LDH assay; assay type: functional, cell-based
[31] = target: T1, Vitamin D3 receptor (Homo sapiens); assay: Antagonist activity at VDR in human HeLa cells assessed as decrease in p62 expression at 10 uM in presence or absence of calcitriol measured after 4 hrs by western blot analysis; assay type: cell-based; details: filed as antagonist
[32] = target: T1, Vitamin D3 receptor (Homo sapiens); assay: Antagonist activity at VDR in human HeLa cells assessed as reduction in CYP27B1 mRNA expression at 10 uM in presence of calcitriol measured after 4 hrs by […]; assay type: cell-based

Structure (SMILES) | Activity [1] | inhibition ([2]; filed as antagonist) | inhibition [4] | inhibition [2] | other results
C=C1CC[C@@H]2[C@]3(C)COC(C)(C)O[C@@H]3CC[C@@]2(C)[C@@H]1C/C=C(/CO)[C@@H](CO)O[Si](CC)(CC)CC | Non-Toxic | Active | inactive | – | inhibition [3]: Active
C=C1CC[C@@H]2[C@]3(C)COC(C)(C)O[C@@H]3CC[C@@]2(C)[C@@H]1C/C=C1/C(=O)OC[C@H]1O[Si](C)(C)C(C)(C)C | Non-Toxic | – | inactive | inactive | –
C=C1CC[C@@H]2[C@]3(C)COC(C)(C)O[C@@H]3CC[C@@]2(C)[C@@H]1C/C=C1/C(O)OC[C@H]1O[Si](C)(C)C(C)(C)C (stereo partly drawn) | Non-Toxic | – | inactive | inactive | inhibition [3]: inactive
C=C1CC[C@@H]2[C@]3(C)COC(C)(C)O[C@@H]3CC[C@@]2(C)[C@@H]1C/C=C1/C(O)OC[C@H]1O[Si](CC)(CC)CC (stereo partly drawn) | Non-Toxic | Active | inactive | – | inhibition ([5]; filed as antagonist): Active; Activity [6]: Active; inhibition [7]: Active
CCC(=O)N1CCN(c2ccc(-n3c(=O)ccc4cnc5ccc(-c6cnc7ccccc7c6)cc5c43)cc2C(F)(F)F)CC1 | – | – | – | – | Activity [8]: Active; Activity [9]: Active; Activity [10]: Active; Activity [11]: inactive; inhibition [12]: Active; Activity [13]: inactive; Activity [14]: Active; inhibition [15]: Active; Activity [16]: Active; Activity [17]: Active
C=C1CC[C@@H]2[C@](C)(COC(C)=O)[C@H](OC(C)=O)CC[C@@]2(C)[C@@H]1C/C=C(/COC(C)=O)[C@@H](COC(C)=O)O[Si](C)(C)C(C)(C)C | Non-Toxic | – | inactive | inactive | –
C=C1CC[C@@H]2[C@](C)(COC(C)=O)[C@H](O)CC[C@@]2(C)[C@@H]1C/C=C(/COC(C)=O)[C@@H](COC(C)=O)O[Si](C)(C)C(C)(C)C | Non-Toxic | Active | inactive | – | inhibition [5]: inactive; Activity [6]: Active; Activity [18]: Active; Activity [19]: inactive; Activity [20]: Active; Activity [21]: Active; Activity [22]: inactive; Activity [23]: inactive; Activity [24]: inactive; inhibition [7]: Active; Activity [25]: Active; Activity [26]: Active; Activity [14]: Active; Activity [27]: Active; Activity [28]: inactive; Activity [29]: inactive; Activity [30]: Active
C=C1CC[C@@H]2[C@]3(C)COC(C)(C)O[C@@H]3CC[C@@]2(C)[C@@H]1C/C=C1/C(=O)OC[C@H]1O[Si](CC)(CC)CC | Non-Toxic | – | inactive | inactive | Activity [31]: Active
C=C1CC[C@@H]2[C@](C)(CO)[C@H](O)CC[C@@]2(C)[C@@H]1C/C=C1/C(O)OC[C@H]1O[Si](C)(C)C(C)(C)C (stereo partly drawn) | Non-Toxic | Active | inactive | – | –
C=C1CC[C@@H]2[C@]3(C)COC(C)(C)O[C@@H]3CC[C@@]2(C)[C@@H]1C/C=C(/COC(C)=O)[C@@H](COC(C)=O)O[Si](C)(C)C(C)(C)C | Non-Toxic | – | inactive | inactive | –
C=C1CC[C@@H]2[C@]3(C)COC(C)(C)O[C@@H]3CC[C@@]2(C)[C@@H]1C/C=C(/CO)[C@@H](CO)O[Si](C)(C)C(C)(C)C | Non-Toxic | – | inactive | inactive | inhibition [3]: inactive
C=C1CC[C@@H]2[C@](C)(CO)[C@H](O)CC[C@@]2(C)[C@@H]1C/C=C1/C(O)OC[C@H]1O[Si](CC)(CC)CC (stereo partly drawn) | Non-Toxic | – | inactive | inactive | –
C=C1CC[C@@H]2[C@]3(C)COC(C)(C)O[C@@H]3CC[C@@]2(C)[C@@H]1C/C=C(/C=O)[C@@H](COC(C)=O)O[Si](C)(C)C(C)(C)C | Non-Toxic | Active | inactive | – | inhibition ([5]; filed as antagonist): Active; inhibition [7]: Active
C=C1CC[C@@H]2[C@](C)(CO)[C@H](O)CC[C@@]2(C)[C@@H]1C/C=C(/COC(C)=O)[C@@H](COC(C)=O)O[Si](C)(C)C(C)(C)C | Non-Toxic | Active | inactive | – | Activity [32]: inactive; inhibition ([5]; filed as antagonist): Active; Activity [6]: Active
